Data published in patent US4794122A, “Novel benzimidazolyl-thiomethyl-benzothiazoles” (Uclaf; Roussel, priority 1986, dated 1988).

Molecular target: T1, 5-lipoxygenase (Rattus norvegicus, UniProt P12527)
T1 construct: prelabelled rat peritoneal neutrophils; endogenous in cells; host or cells: rat peritoneal neutrophils
T1 sequence (P12527 1-673): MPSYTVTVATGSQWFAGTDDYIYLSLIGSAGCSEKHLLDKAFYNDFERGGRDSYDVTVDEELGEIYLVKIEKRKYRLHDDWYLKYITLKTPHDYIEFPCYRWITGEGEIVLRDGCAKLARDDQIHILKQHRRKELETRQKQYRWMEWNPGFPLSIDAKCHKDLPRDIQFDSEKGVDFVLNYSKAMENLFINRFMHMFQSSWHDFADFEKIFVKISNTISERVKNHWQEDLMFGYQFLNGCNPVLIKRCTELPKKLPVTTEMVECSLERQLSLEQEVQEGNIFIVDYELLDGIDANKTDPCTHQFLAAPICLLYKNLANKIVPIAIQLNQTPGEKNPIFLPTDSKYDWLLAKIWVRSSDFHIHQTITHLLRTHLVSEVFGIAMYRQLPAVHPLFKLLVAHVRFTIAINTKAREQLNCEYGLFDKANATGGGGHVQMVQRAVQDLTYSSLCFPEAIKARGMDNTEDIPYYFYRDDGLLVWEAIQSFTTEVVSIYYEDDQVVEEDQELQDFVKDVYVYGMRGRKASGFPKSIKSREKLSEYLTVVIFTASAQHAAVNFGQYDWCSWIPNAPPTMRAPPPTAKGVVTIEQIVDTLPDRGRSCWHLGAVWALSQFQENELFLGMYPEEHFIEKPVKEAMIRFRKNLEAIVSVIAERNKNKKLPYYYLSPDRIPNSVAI
Test: Inhibition of Ca++ ionophore (A23187)-induced release of 5-lipoxygenase products (leukotriene B4 and 5-HETE) from [14C]-arachidonic acid prelabelled rat peritoneal neutrophils
Type: cell-based
Conditions: A23187-induced release of leukotriene B4 and 5-HETE, determined graphically from dose response curves, read-out: micro molecular concentration of the compounds causing a 50% inhibition of the control response for 5-lipoxygenase
Protocol: Inhibition of Ca^++ ionophore (A23187)-induced release of 5-lipoxygenase products (leukotriene B4 and 5-HETE) from [^14 C]-arachidonic acid prelabelled rat peritoneal neutrophils was determined by a modification of the method of Ahnfelt-Ronne et al [Biochemical Pharmacology, Vol. 31, (1982), No. 16, p. 2619-2624].

First: Clc1ccc2[nH]c(SCc3nc4ccccc4s3)nc2c1 [Example 2, 2-(5-chloro-1H-benzimidazol-2-yl-thiomethyl)benzothiazole]
Second: c1ccc2[nH]c(SCc3nc4ccccc4s3)nc2c1 [Example 1, 2-(1H-benzimidazol-2-yl-thiomethyl)-benzothiazole]
The IC50 of the first is 5.9-fold lower: 590 nM for the first, 3500 nM for the second. The first is the more potent here.

For Clc1cc2nc(SCc3nc4ccccc4s3)[nH]c2cc1Cl [Example 3, 2-(5,6-dichloro-1H-benzimidazol-2-yl-thiomethyl)benzothiazole], the IC50 was 230 nM.
